Measurements published in PubChem BioAssay (NCI).
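In this assay, cells in 96-well plates receive the compound at five concentrations for 48 hours. Endpoints are linearly interpolated between the surrounding concentrations. At the TGI there is no net growth.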

Tests used:
Test in all cases: NCI-60 cell line screen, 48 h
[1] = system: A498 renal
[2] = system: CAKI-1 renal
[3] = system: DU-145 prostate
[4] = system: HCC-2998 colon
[5] = system: HOP-92 NSCLC
[6] = system: MDA-MB-231 breast
[7] = system: MDA-N
[8] = system: OVCAR-8 ovarian
[9] = system: PC-3 prostate
[10] = system: SF-539 CNS
[11] = system: SN12C renal
[12] = system: SW-620 colon
[13] = system: UACC-257 melanoma
[14] = system: UACC-62 melanoma
[15] = system: UO-31 renal
[16] = system: HL-60(TB) leukemia
[17] = system: M14 melanoma

Compound	TGI [1]	TGI [2]	TGI [3]	TGI [4]	TGI [5]	TGI [6]	TGI [7]	TGI [8]	TGI [9]	TGI [10]	TGI [11]	TGI [12]	TGI [13]	TGI [14]	TGI [15]	TGI [16]	TGI [17]
O=C(C(=O)n1ccc2ccccc21)n1ccc2ccccc21	> 100 µM	> 100 µM	> 100 µM	> 100 µM	> 100 µM	> 100 µM	> 100 µM	> 100 µM	> 100 µM	> 100 µM	> 100 µM	> 100 µM	> 100 µM	> 100 µM	> 100 µM	–	–
C(=C/CCCN1O[C@@H](CCCCCCCCc2cccnc2)[C@H]2CCC[C@H]21)/CCCCCCCCCc1cccnc1	45.5 µM	33.1 µM	> 100 µM	–	28.1 µM	36.9 µM	71.9 µM	88.3 µM	46.1 µM	34.9 µM	40.3 µM	91.8 µM	41.7 µM	51 µM	40.5 µM	23 µM	63 µM
O=C1/C(=C/c2ccco2)NC(=S)N1CN1CCCCC1	> 100 µM	–	> 100 µM	–	> 100 µM	> 100 µM	> 100 µM	> 100 µM	> 100 µM	–	> 100 µM	> 100 µM	–	> 100 µM	> 100 µM	–	> 100 µM
CCOC(=O)c1cn2c(n1)sc1cc(F)ccc12	> 100 µM	> 100 µM	> 100 µM	> 100 µM	> 100 µM	> 100 µM	> 100 µM	> 100 µM	> 100 µM	> 100 µM	> 100 µM	> 100 µM	> 100 µM	> 100 µM	> 100 µM	–	> 100 µM
CCOC(=O)C12OC(OCC)(CC1(OCC)OCC)C1(CC1)C2=O (stereo not given)	> 100 µM	> 100 µM	> 100 µM	> 100 µM	> 100 µM	> 100 µM	> 100 µM	> 100 µM	> 100 µM	> 100 µM	> 100 µM	> 100 µM	> 100 µM	–	> 100 µM	–	> 100 µM
Cc1cn(C2OC(CO[Si](C)(C)C(C)(C)C)C(N(C)O[Si](C)(C)C(C)(C)C)C2[Se]c2ccccc2)c(=O)[nH]c1=O (stereo not given)	49.5 µM	–	79 µM	0.491 µM	10.9 µM	43.8 µM	> 100 µM	24.6 µM	34 µM	–	> 100 µM	> 100 µM	–	42.4 µM	13.7 µM	> 100 µM	50.8 µM
CCOC(=O)CCCSCCCC(=O)CCCSCCCC(=O)OCC	–	–	> 100 µM	> 100 µM	> 100 µM	> 100 µM	> 100 µM	> 100 µM	> 100 µM	> 100 µM	> 100 µM	> 100 µM	> 100 µM	> 100 µM	> 100 µM	> 100 µM	> 100 µM
COc1ccc(C2=CC(C(C)=C(C(N)=O)C(N)=O)C=C(c3ccc(Br)cc3)C2)c(OC)c1 (stereo not given)	> 100 µM	> 100 µM	> 100 µM	> 100 µM	> 100 µM	> 100 µM	> 100 µM	> 100 µM	> 100 µM	–	> 100 µM	> 100 µM	> 100 µM	> 100 µM	> 100 µM	> 100 µM	> 100 µM
O=C1c2cc3c(cc2CC12Cc1ccc4c(c1C2=O)CCC4)CCCC3 (stereo not given)	> 100 µM	> 100 µM	> 100 µM	> 100 µM	> 100 µM	> 100 µM	> 100 µM	> 100 µM	> 100 µM	> 100 µM	–	> 100 µM	> 100 µM	–	> 100 µM	> 100 µM	> 100 µM
O=C1/C(=C\c2ccc(Cl)cc2Cl)Sc2scc(-c3ccc(O)c(O)c3)[n+]21	–	43.4 µM	41.9 µM	40.9 µM	23.1 µM	61.2 µM	60.1 µM	35.2 µM	36.4 µM	45.2 µM	30.3 µM	29.7 µM	71.3 µM	22.4 µM	26.8 µM	29.8 µM	40.6 µM
N#Cc1nc(-c2cnccn2)oc1N	> 100 µM	> 100 µM	> 100 µM	–	> 100 µM	> 100 µM	> 100 µM	> 100 µM	> 100 µM	–	> 100 µM	> 100 µM	> 100 µM	> 100 µM	> 100 µM	> 100 µM	> 100 µM
C[N+]12C=CC=C1C(N1CCCC1)c1scc(-c3ccc(Br)cc3)c12 (stereo not given)	> 100 µM	> 100 µM	> 100 µM	39.9 µM	42.1 µM	> 93.8 µM	98.2 µM	> 100 µM	99.2 µM	21.9 µM	> 35.7 µM	> 100 µM	> 51.9 µM	80.3 µM	> 100 µM	–	> 66.4 µM
CSC(=O)c1sc(SC)[n+](-c2ccccc2)c1O	> 100 µM	–	29.5 µM	44.8 µM	–	39 µM	37.1 µM	59.7 µM	29.8 µM	29.5 µM	38.8 µM	42.5 µM	–	29.7 µM	31.4 µM	–	29.2 µM
CCCCCCc1cc2cc(-c3cn4ccsc4n3)c(=O)oc2cc1O	> 100 µM	> 95.9 µM	> 100 µM	> 100 µM	> 100 µM	> 100 µM	> 22.8 µM	> 71.8 µM	> 100 µM	> 100 µM	> 100 µM	> 100 µM	> 100 µM	> 50.8 µM	> 100 µM	> 100 µM	–
O=C1c2ccccc2-n2nnnc2C2CSCN12 (stereo not given)	> 100 µM	> 100 µM	> 100 µM	> 100 µM	–	> 100 µM	> 100 µM	> 100 µM	> 100 µM	–	> 100 µM	> 100 µM	> 100 µM	> 100 µM	> 100 µM	–	> 100 µM
Cc1nn(C(=O)Cc2ccccc2)c2c1C(c1ccccc1)SC(N)=N2 (stereo not given)	> 100 µM	> 100 µM	> 100 µM	> 100 µM	–	> 100 µM	> 100 µM	> 100 µM	> 100 µM	> 100 µM	> 100 µM	> 100 µM	> 100 µM	> 100 µM	> 100 µM	> 100 µM	> 100 µM

Compound	TGI [1]	TGI [2]	TGI [3]	TGI [4]	TGI [5]	TGI [6]	TGI [7]	TGI [8]	TGI [9]	TGI [10]	TGI [11]	TGI [12]	TGI [13]	TGI [14]	TGI [15]	TGI [16]	TGI [17]
CC(C)C(NC(=O)Oc1ccccc1)C(=O)NC1c2c(Br)sc(Br)c2C(=O)C1O (stereo not given)	> 25 µM	14.1 µM	> 25 µM	7.68 µM	–	9.41 µM	> 25 µM	9.15 µM	> 25 µM	> 25 µM	10.8 µM	11.1 µM	8.66 µM	8.08 µM	> 25 µM	> 25 µM	11.4 µM
CC1(C)[C@@H](Cn2cc(I)c(=O)[nH]c2=O)CC[C@@]1(C)CO	> 100 µM	> 100 µM	> 100 µM	> 100 µM	> 100 µM	> 100 µM	> 100 µM	–	> 100 µM	–	> 100 µM	> 100 µM	> 100 µM	> 100 µM	> 100 µM	–	> 100 µM
COC(=O)c1ccc(Cc2cc(Cc3ccc(C(=O)OC)cc3)cc(Cc3ccc(C(=O)OC)cc3)c2)cc1	> 25 µM	–	> 25 µM	> 25 µM	> 25 µM	> 25 µM	> 25 µM	> 25 µM	> 25 µM	> 25 µM	> 25 µM	> 25 µM	> 25 µM	> 25 µM	> 25 µM	> 25 µM	> 25 µM
CCOC(=O)C(=[N+]=[N-])C(=O)CN1C(=O)c2ccccc2C1=O	> 100 µM	> 100 µM	> 100 µM	> 100 µM	> 100 µM	> 100 µM	> 100 µM	> 100 µM	> 100 µM	> 100 µM	> 100 µM	> 100 µM	> 100 µM	> 100 µM	> 100 µM	–	> 100 µM
Cc1ccc(-[n+]2cc([O-])on2)cc1	> 100 µM	> 100 µM	> 100 µM	–	> 100 µM	> 100 µM	> 100 µM	> 100 µM	> 100 µM	–	> 100 µM	> 100 µM	> 100 µM	> 100 µM	> 100 µM	> 100 µM	> 100 µM
Cc1ccc(S(=O)(=O)N2CC2CCCCC=O)cc1 (stereo not given)	> 100 µM	> 100 µM	> 100 µM	–	> 100 µM	> 100 µM	> 100 µM	> 100 µM	> 100 µM	–	> 100 µM	> 100 µM	> 100 µM	> 100 µM	> 100 µM	–	> 100 µM
N=c1oc2ccccc2cc1C(=O)NC12CC3CC(CC(C3)C1)C2	> 82.1 µM	–	> 84.3 µM	28.7 µM	> 100 µM	47.7 µM	> 100 µM	> 100 µM	> 68.9 µM	42 µM	> 100 µM	> 100 µM	70.9 µM	62.6 µM	0.471 µM	30.7 µM	> 100 µM
N#C/C(N)=C(\C#N)NC=NCCO	> 100 µM	> 100 µM	> 100 µM	> 100 µM	–	> 100 µM	> 100 µM	> 100 µM	> 100 µM	> 100 µM	> 100 µM	> 100 µM	> 100 µM	> 100 µM	> 100 µM	> 100 µM	> 100 µM
Nc1ncc2c(n1)-c1ccccc1OC2N1CCCCC1 (stereo not given)	> 100 µM	> 100 µM	> 100 µM	–	> 100 µM	> 100 µM	> 100 µM	> 100 µM	> 100 µM	> 100 µM	> 100 µM	> 100 µM	> 100 µM	> 100 µM	> 100 µM	> 100 µM	> 100 µM
O=C1c2sc(-c3ccc(Cl)cc3)cc2-n2cccc21	> 100 µM	> 100 µM	> 100 µM	> 100 µM	–	> 100 µM	> 100 µM	> 100 µM	> 100 µM	–	> 100 µM	> 100 µM	> 100 µM	> 100 µM	> 100 µM	–	> 100 µM
COC(=O)CC(C)(NS(=O)c1ccc(C)cc1)c1ccccc1 (stereo not given)	> 100 µM	–	> 100 µM	> 100 µM	> 100 µM	> 100 µM	> 100 µM	–	> 100 µM	> 100 µM	> 100 µM	> 100 µM	> 100 µM	> 100 µM	> 100 µM	> 100 µM	–
CCOC(=O)c1ccc(-c2cc(C)no2)[nH]1	> 100 µM	71.5 µM	> 100 µM	–	> 100 µM	> 100 µM	> 100 µM	> 100 µM	> 100 µM	> 100 µM	> 100 µM	> 100 µM	> 100 µM	> 100 µM	> 100 µM	> 100 µM	> 100 µM
O=C(O)Cc1ccc([N+](=O)[O-])cc1[N+](=O)[O-]	> 100 µM	> 100 µM	> 100 µM	–	–	> 100 µM	> 100 µM	> 100 µM	> 100 µM	> 100 µM	> 100 µM	> 100 µM	> 100 µM	> 100 µM	> 100 µM	> 100 µM	> 100 µM
O=c1[nH]c(=O)n(C2COC(CO)C2O)cc1F (stereo not given)	> 100 µM	> 100 µM	> 100 µM	> 100 µM	> 100 µM	> 100 µM	> 100 µM	> 100 µM	> 100 µM	> 100 µM	> 100 µM	> 100 µM	> 100 µM	> 100 µM	> 100 µM	–	> 100 µM
CC(=O)CC1CCC(=O)/C=C/C(=O)OC(CC(C)=O)CCC(=O)/C=C/C(=O)O1 (stereo not given)	33.7 µM	20 µM	35 µM	39.4 µM	10.3 µM	15 µM	24 µM	53.5 µM	28.6 µM	34.9 µM	15.3 µM	3.65 µM	31.4 µM	29.1 µM	26.9 µM	–	10.6 µM
